Measurements taken from PMC10227015, “From a drug repositioning to a structure-based drug design approach to tackle acute lymphoblastic leukemia” (Nature Communications, 2023).

What was measured:
CDK7 = target: T1, CDK7 (Homo sapiens, UniProt P50613); test: KINOMEscan competition binding; details: OR0642 1 µM; read-out: %Control
T1 construct: purchased Eurofins DiscoverX (KINOMEscan scanEDGE 97)
Experimental: (§1) Kinome profiling was provided by Eurofins DiscoverX Corporation. Determination of the % control activity for 97 kinases was obtained through an active site-directed competition binding assay that quantitatively measure interactions between compound and kinases. OR0642 was used at 1 μM.
(§2) Supplementary Table 3. KINOMEscan™ Profiling of OR0642. Competition binding assay to
(§3) quantitatively measure interactions between OR0642 (1 µM) and 97 human kinases and disease
(§4) relevant mutant variants.

[1] = target: T2, ABL1(E255K)-phosphorylated (Homo sapiens, UniProt P00519, E255K); test: KINOMEscan competition binding; details: OR0642 1 µM; read-out: %Control
T2 construct: purchased Eurofins DiscoverX (KINOMEscan scanEDGE 97)
Experimental: as §1, §2, §3, §4

EGFR = target: T3, EGFR (Homo sapiens, UniProt P00533); test: KINOMEscan competition binding; details: OR0642 1 µM; read-out: %Control
T3 construct: purchased Eurofins DiscoverX (KINOMEscan scanEDGE 97)
Experimental: as §1, §2, §3, §4

AXL = target: T4, AXL (Homo sapiens, UniProt P30530); test: KINOMEscan competition binding; details: OR0642 1 µM; read-out: %Control
T4 construct: purchased Eurofins DiscoverX (KINOMEscan scanEDGE 97)
Experimental: as §1, §2, §3, §4

LKB1 = target: T5, LKB1 (Homo sapiens, UniProt Q15831); test: KINOMEscan competition binding; details: OR0642 1 µM; read-out: %Control
T5 construct: purchased Eurofins DiscoverX (KINOMEscan scanEDGE 97)
Experimental: as §1, §2, §3, §4

JNK3 = target: T6, JNK3 (Homo sapiens, UniProt P53779); test: KINOMEscan competition binding; details: OR0642 1 µM; read-out: %Control
T6 construct: purchased Eurofins DiscoverX (KINOMEscan scanEDGE 97)
Experimental: as §1, §2, §3, §4

FGFR3 = target: T7, FGFR3 (Homo sapiens, UniProt P22607); test: KINOMEscan competition binding; details: OR0642 1 µM; read-out: %Control
T7 construct: purchased Eurofins DiscoverX (KINOMEscan scanEDGE 97)
Experimental: as §1, §2, §3, §4

ABL1-phosphorylated = target: T8, ABL1-phosphorylated (Homo sapiens, UniProt P00519); test: KINOMEscan competition binding; details: OR0642 1 µM; read-out: %Control
T8 construct: purchased Eurofins DiscoverX (KINOMEscan scanEDGE 97)
Experimental: as §1, §2, §3, §4

MAP3K4 = target: T9, MAP3K4 (Homo sapiens, UniProt Q9Y6R4); test: KINOMEscan competition binding; details: OR0642 1 µM; read-out: %Control
T9 construct: purchased Eurofins DiscoverX (KINOMEscan scanEDGE 97)
Experimental: as §1, §2, §3, §4

ADCK3 = target: T10, ADCK3 (Homo sapiens, UniProt Q8NI60); test: KINOMEscan competition binding; details: OR0642 1 µM; read-out: %Control
T10 construct: purchased Eurofins DiscoverX (KINOMEscan scanEDGE 97)
Experimental: as §1, §2, §3, §4

MEK2 = target: T11, MEK2 (Homo sapiens, UniProt P36507); test: KINOMEscan competition binding; details: OR0642 1 µM; read-out: %Control
T11 construct: purchased Eurofins DiscoverX (KINOMEscan scanEDGE 97)
Experimental: as §1, §2, §3, §4

MKNK2 = target: T12, MKNK2 (Homo sapiens, UniProt Q9HBH9); test: KINOMEscan competition binding; details: OR0642 1 µM; read-out: %Control
T12 construct: purchased Eurofins DiscoverX (KINOMEscan scanEDGE 97)
Experimental: as §1, §2, §3, §4

JNK1 = target: T13, JNK1 (Homo sapiens, UniProt P45983); test: KINOMEscan competition binding; details: OR0642 1 µM; read-out: %Control
T13 construct: purchased Eurofins DiscoverX (KINOMEscan scanEDGE 97)
Experimental: as §1, §2, §3, §4

BMPR2 = target: T14, BMPR2 (Homo sapiens, UniProt Q13873); test: KINOMEscan competition binding; details: OR0642 1 µM; read-out: %Control
T14 construct: purchased Eurofins DiscoverX (KINOMEscan scanEDGE 97)
Experimental: as §1, §2, §3, §4

PIM1 = target: T15, PIM1 (Homo sapiens, UniProt P11309); test: KINOMEscan competition binding; details: OR0642 1 µM; read-out: %Control
T15 construct: purchased Eurofins DiscoverX (KINOMEscan scanEDGE 97)
Experimental: as §1, §2, §3, §4

ERK1 = target: T16, ERK1 (Homo sapiens, UniProt P27361); test: KINOMEscan competition binding; details: OR0642 1 µM; read-out: %Control
T16 construct: purchased Eurofins DiscoverX (KINOMEscan scanEDGE 97)
Experimental: as §1, §2, §3, §4

KIT(V559D,T670I) = target: T17, KIT(V559D,T670I) (Homo sapiens, UniProt P10721, T670I/V559D); test: KINOMEscan competition binding; details: OR0642 1 µM; read-out: %Control
T17 construct: purchased Eurofins DiscoverX (KINOMEscan scanEDGE 97)
Experimental: as §1, §2, §3, §4

PCTK1 = target: T18, PCTK1 (Homo sapiens, UniProt Q00536); test: KINOMEscan competition binding; details: OR0642 1 µM; read-out: %Control
T18 construct: purchased Eurofins DiscoverX (KINOMEscan scanEDGE 97)
Experimental: as §1, §2, §3, §4

CHEK1 = target: T19, CHEK1 (Homo sapiens, UniProt O14757); test: KINOMEscan competition binding; details: OR0642 1 µM; read-out: %Control
T19 construct: purchased Eurofins DiscoverX (KINOMEscan scanEDGE 97)
Experimental: as §1, §2, §3, §4

PDX UPNT525 = test: Ex vivo testing on PDX samples (viability, flow cytometry, 72 h); format: cell-based, human
Text: (§5) Bone marrow-infiltrating blasts from terminally mice bearing PDX as stated above were collected as established before. Extensive analysis (immunophenotype and molecular analysis) of matched primary and PDX samples used in the study are shown in Supplementary Table 7, showing that they remain stable. Briefly, after euthanasia, bone marrows from tibiae, hips, femurs, and vertebrae were isolated and blasts collected for subsequent ex vivo experiments. All samples used contained ≥90% blasts as determined by flow cytometry. For the cytotoxic evaluation of OR0642, blasts were then stained with CellTraceTM Violet (CTV, Thermo Fisher Scientific, C34557) prior seeding at 10,000 cells into 96-well plates under normal conditions or pre-plated with OP9-DL1 cells. Cells were cultured in RPMI 1640 supplemented with 20% fetal bovine serum, 50 µg/ml streptomycin, 50 UI penicillin, 4 mM L-glutamine, and a cocktail of human cytokines as previously established (50 ng/ml human stem cell factor, 20 ng/ml hFLT3-L, 10 ng/ml hIL-7 and 20 nM insulin (Miltenyi Biotec))[28]. […] Rescue by dC supplementation (1 µM) was also evaluated. OR0642 was then tested alone, or combined with dT or dT + dC at two concentrations (0.25 and 0.5 µM). Cell viability was evaluated by flow cytometry 72 h post-treatment. Proliferation indexes were calculated using the detection of CTV in the control replicates (DMSO) and the proliferation modeling tool of FlowJo™ Software 10.7.1 (BD Life Sciences). A control peak of undivided CTV-stained cells was systematically used to set the undivided fraction.

PDX UPNT615 = test: as above; format: cell-based, human
Text: as §5

PDX UPNT489 = test: as above; format: cell-based, human
Text: as §5

PDX UPNTAGG = test: as above; format: cell-based, human
Text: as §5

PDX UPNT486 = test: as above; format: cell-based, human
Text: as §5

CCCN(c1nc(-c2nc(N)cc(N)n2)cs1)c1cc(-c2ccc(S(=O)(=O)N3CCN(C)CC3)cc2C(F)(F)F)ccc1C [OR0642]
remaining binding at 1 µM (CDK7): 94%
remaining binding at 1 µM [1]: 96%
remaining binding at 1 µM (EGFR): 82%
remaining binding at 1 µM (AXL): 89%
remaining binding at 1 µM (LKB1): 99%
remaining binding at 1 µM (JNK3): 81%
remaining binding at 1 µM (FGFR3): 79%
remaining binding at 1 µM (ABL1-phosphorylated): 99%
remaining binding at 1 µM (MAP3K4): 97%
remaining binding at 1 µM (ADCK3): 95%
remaining binding at 1 µM (MEK2): 96%
remaining binding at 1 µM (MKNK2): 79%
remaining binding at 1 µM (JNK1): 93%
remaining binding at 1 µM (BMPR2): 94%
remaining binding at 1 µM (PIM1): 100%
remaining binding at 1 µM (ERK1): 86%
remaining binding at 1 µM (KIT(V559D,T670I)): 100%
remaining binding at 1 µM (PCTK1): 98%
remaining binding at 1 µM (CHEK1): 91%

Cc1cn([C@H]2C[C@H](O)[C@@H](CO)O2)c(=O)[nH]c1=O [dT, thymidine]
viability at 37 µM (PDX UPNT525; Homo sapiens, UPNT525, dT 37 µM, read-out: Cell viability, Mean (% viab)): 99.5%
viability at 111 µM (PDX UPNT525; Homo sapiens, UPNT525, dT 111 µM, read-out: Cell viability, Mean (% viab)): 67.8%
viability at 333 µM (PDX UPNT525; Homo sapiens, UPNT525, dT 333 µM, read-out: Cell viability, Mean (% viab)): 44.3%
viability at 1000 µM (PDX UPNT525; Homo sapiens, UPNT525, dT 1000 µM, read-out: Cell viability, Mean (% viab)): 30.6%
viability at 3000 µM (PDX UPNT525; Homo sapiens, UPNT525, dT 3000 µM, read-out: Cell viability, Mean (% viab)): 24.9%
Response at dT100 µM (PDX UPNT525; PDX 525, dT 100 µM): 44
viability at 12 µM (PDX UPNT615; Homo sapiens, UPNT615, dT 12 µM, read-out: Cell viability, Mean (% viab)): 100%
viability at 37 µM (PDX UPNT615; Homo sapiens, UPNT615, dT 37 µM, read-out: Cell viability, Mean (% viab)): 84.7%
viability at 111 µM (PDX UPNT615; Homo sapiens, UPNT615, dT 111 µM, read-out: Cell viability, Mean (% viab)): 78.6%
viability at 333 µM (PDX UPNT615; Homo sapiens, UPNT615, dT 333 µM, read-out: Cell viability, Mean (% viab)): 73.6%
viability at 1000 µM (PDX UPNT615; Homo sapiens, UPNT615, dT 1000 µM, read-out: Cell viability, Mean (% viab)): 67.2%
viability at 3000 µM (PDX UPNT615; Homo sapiens, UPNT615, dT 3000 µM, read-out: Cell viability, Mean (% viab)): 66.7%
Response at dT100 µM (PDX UPNT615; PDX 615, dT 100 µM): 31
viability at 12 µM (PDX UPNT489; Homo sapiens, UPNT489, dT 12 µM, read-out: Cell viability, Mean (% viab)): 100%
viability at 37 µM (PDX UPNT489; Homo sapiens, UPNT489, dT 37 µM, read-out: Cell viability, Mean (% viab)): 94.6%
viability at 111 µM (PDX UPNT489; Homo sapiens, UPNT489, dT 111 µM, read-out: Cell viability, Mean (% viab)): 87%
viability at 333 µM (PDX UPNT489; Homo sapiens, UPNT489, dT 333 µM, read-out: Cell viability, Mean (% viab)): 78.3%
viability at 1000 µM (PDX UPNT489; Homo sapiens, UPNT489, dT 1000 µM, read-out: Cell viability, Mean (% viab)): 71.4%
viability at 3000 µM (PDX UPNT489; Homo sapiens, UPNT489, dT 3000 µM, read-out: Cell viability, Mean (% viab)): 66.9%
Response at dT100 µM (PDX UPNT489; PDX 489, dT 100 µM): 39
viability at 12 µM (PDX UPNTAGG; Homo sapiens, UPNTAGG, dT 12 µM, read-out: Cell viability, Mean (% viab)): 100%
viability at 37 µM (PDX UPNTAGG; Homo sapiens, UPNTAGG, dT 37 µM, read-out: Cell viability, Mean (% viab)): 87.6%
viability at 111 µM (PDX UPNTAGG; Homo sapiens, UPNTAGG, dT 111 µM, read-out: Cell viability, Mean (% viab)): 82.2%
viability at 333 µM (PDX UPNTAGG; Homo sapiens, UPNTAGG, dT 333 µM, read-out: Cell viability, Mean (% viab)): 73.3%
viability at 1000 µM (PDX UPNTAGG; Homo sapiens, UPNTAGG, dT 1000 µM, read-out: Cell viability, Mean (% viab)): 65.7%
viability at 3000 µM (PDX UPNTAGG; Homo sapiens, UPNTAGG, dT 3000 µM, read-out: Cell viability, Mean (% viab)): 58.6%
Response at dT100 µM (PDX UPNTAGG; PDX AGG, dT 100 µM): 38
viability at 12 µM (PDX UPNT486; Homo sapiens, UPNT486, dT 12 µM, read-out: Cell viability, Mean (% viab)): 99.7%
viability at 37 µM (PDX UPNT486; Homo sapiens, UPNT486, dT 37 µM, read-out: Cell viability, Mean (% viab)): 95%
viability at 111 µM (PDX UPNT486; Homo sapiens, UPNT486, dT 111 µM, read-out: Cell viability, Mean (% viab)): 90.6%
viability at 333 µM (PDX UPNT486; Homo sapiens, UPNT486, dT 333 µM, read-out: Cell viability, Mean (% viab)): 100%
viability at 1000 µM (PDX UPNT486; Homo sapiens, UPNT486, dT 1000 µM, read-out: Cell viability, Mean (% viab)): 90.2%
viability at 3000 µM (PDX UPNT486; Homo sapiens, UPNT486, dT 3000 µM, read-out: Cell viability, Mean (% viab)): 77.6%
Response at dT100 µM (PDX UPNT486; PDX 486, dT 100 µM): 31
